Source: patent US5990094A, “Inhibitors of sorotonin N-acetyltransferase” (The Rockefeller University, priority 1998, dated 1999)
Values joined by “and” are separate entries in the source; they are usually repeats but may differ in a detail not shown here. Equal entries are not always repeated. “Also recorded” adds a separate entry of the source. Where two headings read alike, the source gives them in different places.

Assays:
AANAT [1] = biological target: T1, AANAT (Ovis aries, UniProt Q29495); experiment: Tryptamine analogs as AANAT substrates, steady-state kinetic parameters
Description: Expression of eukaryotic proteins in bacteria is unpredictable.
The enzymatic assays available for AANAT were direct, radioactive assays. […] Thus indirect methods to measure CoASH formation were tested.
The first objective of these studies was to determine the tolerance of alkyl chain length for substrate processing efficiency. […] Indole-propylamine (7.1) and indole-butylamines(7.2) are not commercially available and were prepared as shown (FIG. 7) (6l).
Another important selectivity issue was addressing the effects of a-methyl and Nw-methyl-substitutions of tryptamine analogs (FIG. 8) on AANAT catalysis. […] These compounds were obtained from commercial sources and tested as AANAT substrates. […] Using these compounds.

AANAT [2] = biological target: T1, AANAT; experiment: a-Trifluoromethyltryptamine tested as AANAT substrate and competitive inhibitor; type: biochemical, sheep; design: The entire open reading frame of the DNA encoding sheep AANAT in the plasmid vector pET15b; GST (glutathione S-transferase, thrombin-cleavable) (N); made in house; host or cells: Escherichia coli
Description: Expression of eukaryotic proteins in bacteria is unpredictable. Indeed, efforts to express the rat and human AANAT protein in E. coli have so far been unsuccessful. In contrast, the sheep enzyme which is 80% identical at the amino acid level to rat and human can be expressed in E. coli as a soluble protein (51). GST-AANAT can be obtained in approximately 90% purity with a yield of 5-10 mg/L of E. coli culture after purification with glutathione-agarose. Optimization of conditions for production of this fusion protein has led to the induction being carried out at 22-24° C. for 5-6 h after 0.2 mM IPTG to prevent inclusion body formation. The fusion protein can be concentrated to>6 mg/mL using an Amicon filter and appears to be stable for at least 6 months when stored at -80° C. in the presence of a thiol-reducing agent. […] Specific activity is also highly reproducible from batch to batch. Cleavage of the fusion protein with thrombin followed by repeat glutathione-affinity chromatography has afforded GST-free AANAT.
Quantitatively, the specific activity is essentially identical to the conventional radioactive assay. Importantly, there is no evidence of significant uncoupling of CoASH production and amide formation with any substrates (or non-substrates) tested.
Commercially available bromotrifluoromethyl ketone was converted to the oxime by reaction with hydroxylamine. The oxime was used to generate the vinyl nitroso derivative which was used in situ to react in a 4+2 cycloaddition and produce the 3-substituted indole. Reduction of this material with LiAlH4 led to generation of racemic a-trifluoromethyltryptamine. a-Trifluoromethyltryptamine was calculated to have a primary amine pKa of approximately 6. […] It is not clear from these studies if the lack of tight binding of a-trifluoromethyltryptamine represents steric or electronic repulsion of the fluorines offset by the tighter binding of the neutral amine function, or if a positively charged amine is the preferred state for binding to AANAT (65).

GST-AANAT [3] = biological target: T2, GST-AANAT (Ovis aries, UniProt Q29495); experiment: Two-substrate steady state kinetics with GST-AANAT; type: biochemical, sheep
T2 construct: The entire open reading frame of the DNA encoding sheep AANAT in the plasmid vector pET15b; made in house; host or cells: Escherichia coli BL21(DE3)pLysS
Description: (§1) DTNB Product Detection Assay
(§2) This assay is based on the detection of CoASH generated during acetyl transfer by reaction with the thiol reagent DTNB (19). […] Reactions were initiated with enzyme (3 μl, 5-30 nM final concentration) that had been prediluted (10-100 fold) in 50 mM sodium phosphate, 500 mM NaCl, 2 mM EDTA, and 0.05 mg/ml bovine serum albumin in the absence of reducing agent immediately before use and maintained on ice during the assay. The reactions were quenched for 0-3 min with 0.6 ml of a buffer containing guanidinium-HCl (3.2 M), sodium phosphate (0.1 M), pH 6.8. […] Background absorbances (with all components added including enzyme) were measured and subtracted from the total absorbance.
Two-Substrate Kinetic Measurements
Two substrate kinetic analysis was performed with substrate concentrations given in FIG. 3, and the data were fitted to the sequential (ternary complex) mechanism equation (Equation 2) using the computer program Kinet-Asyst II™ (IntelliKinetics, State College, Pa.) based on the algorithms of Cleland (20),
.upsilon.=Vm ·A·B/(Ka ·Kb
·Kma ·B+Kmb ·A+A·B)(Eq. 2)
(§3) using a nonlinear least squares approach.

GST-AANAT [4] = biological target: T2, GST-AANAT; experiment: Kinetic measurements with inhibitors of GST-AANAT; type: biochemical, sheep
Description: as §1
(§4) This assay is based on the detection of CoASH generated during acetyl transfer by reaction with the thiol reagent DTNB (19). […] Reactions were initiated with enzyme (3 μl, 5-30 nM final concentration) that had been prediluted (10-100 fold) in 50 mM sodium phosphate, 500 mM NaCl, 2 mM EDTA, and 0.05 mg/ml bovine serum albumin in the absence of reducing agent immediately before use and maintained on ice during the assay. The reactions were quenched for 0-3 min with 0.6 ml of a buffer containing guanidinium-HCl (3.2 M), sodium phosphate (0.1 M), pH 6.8. These mixtures were treated with 0.1 ml of DTNB (2 mM, 0.1 M sodium phosphate, pH 6.8, 10 mM EDTA), vortexed, and allowed to stand for 5 min before absorbance readings were performed at 412 nm (thiophenolate-quantified assuming ε=13.7×10^3 M^-1 cm^-1) (19). Background absorbances (with all components added including enzyme) were measured and subtracted from the total absorbance. […] The rate of conversion of acetyl-CoA to CoASH in the absence of amine was negligible over the course of the assay.
Kinetic Measurements with Inhibitors
.upsilon.=Vm ·S/Km (1+I/Kis) (Eq. 3) using a nonlinear least squares approach. The fixed substrate was assumed to be saturating.
.upsilon.=Vm ·S/[Km (1+I/Kis)+S(1+I/Kii)](Eq. […]
as §3
V=Vm ·S/[Km +S(1+I/Kii)] (Eq. 5)
The abbreviations are Kii =Ki intercept and Kis =Ki slope based on double-reciprocal plot analysis according to the nomenclature of Cleland (21). The data for individual experiments with each inhibitor versus a varied substrate were fit to all three inhibitor models. Choice of kinetic fit was based on a combination of visual inspection and comparison of S.E. values and residuals for all three inhibition types

AANAT [5] = biological target: T1, AANAT; experiment: Viscosity studies with sucrose as microviscogen; type: biochemical, sheep; design: The entire open reading frame of the DNA encoding sheep AANAT in the plasmid vector pET15b; GST (glutathione S-transferase, thrombin-cleavable) (N); made in house; host or cells: Escherichia coli; conditions: for slope of kcat-control/kcat-viscogen vs. relative viscosity: kcat effect (FIG. 10); for rate-determining step: viscosity studies
Excerpt: An important part of enzyme mechanistic analysis is to determine which step(s) is (are) rate-determining for the enzyme reaction. After the binding of the substrates to the enzyme, there are several potential rate-determining steps, the chemical step or one of the product release steps.
Viscosity effects can be useful for distinguishing product release steps from non-diffusional steps (66). The principle of using viscosity effects to study enzyme reaction kinetics is based on the fundamental inverse relationship between microviscosity and diffusional rates. Thus a linear increase in microviscosity caused by a microviscogen such as sucrose causes a linear decrease in the diffusion of small molecules. Since little diffusion is involved in the chemical step, this step is taken as viscosity-insensitive. However, viscogenic agents (which are used at rather high concentrations) can cause non-diffusion related effects by interacting with the enzyme or substrate. Controls for these non-diffusional effects must be carried out. […] Since poor substrates in general would be expected to have reduced kcat values because the rate of their chemical steps are reduced, any viscosity effects observed would be expected to be related to non-diffusional or "artifactual" effects.

GST-AANAT fusion = GST-AANAT fusion (Ovis aries, UniProt Q29495); experiment: DTNB product detection assay, apparent substrate kinetics with GST-AANAT
Description: as §1, §2

GST-AANAT [6] = biological target: T2, GST-AANAT; experiment: Tryptophol tested as alternative substrate of GST-AANAT; type: biochemical, sheep; conditions: 1 mM tryptophol, 1 mM acetyl-CoA, up to 3 min
Description: as §1, §4
The structural analog to tryptamine in which the primary amine function is replaced by a hydroxyl function (tryptophol) (see FIG. 4) could theoretically be an alternative AANAT substrate.

[7] = varied substrate acetyl-CoA, tryptamine 0.2 mM (subsaturating)
[8] = varied substrate acetyl-CoA, tryptamine 0.2 mM, read-out: Ksi
[9] = varied substrate tryptamine, acetyl-CoA 1 mM
[10] = varied substrate tryptamine, acetyl-CoA 1 mM, read-out: Kis

T1 sequence (Q29495 whole entry): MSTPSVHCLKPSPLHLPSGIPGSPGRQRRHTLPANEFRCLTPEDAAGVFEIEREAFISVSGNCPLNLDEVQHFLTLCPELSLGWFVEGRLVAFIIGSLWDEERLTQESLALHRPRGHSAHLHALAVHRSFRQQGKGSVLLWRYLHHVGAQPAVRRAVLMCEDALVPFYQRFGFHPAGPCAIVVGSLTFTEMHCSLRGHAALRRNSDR
T2 sequence (Q29495 other isoform, or with tags, fused parts or gaps): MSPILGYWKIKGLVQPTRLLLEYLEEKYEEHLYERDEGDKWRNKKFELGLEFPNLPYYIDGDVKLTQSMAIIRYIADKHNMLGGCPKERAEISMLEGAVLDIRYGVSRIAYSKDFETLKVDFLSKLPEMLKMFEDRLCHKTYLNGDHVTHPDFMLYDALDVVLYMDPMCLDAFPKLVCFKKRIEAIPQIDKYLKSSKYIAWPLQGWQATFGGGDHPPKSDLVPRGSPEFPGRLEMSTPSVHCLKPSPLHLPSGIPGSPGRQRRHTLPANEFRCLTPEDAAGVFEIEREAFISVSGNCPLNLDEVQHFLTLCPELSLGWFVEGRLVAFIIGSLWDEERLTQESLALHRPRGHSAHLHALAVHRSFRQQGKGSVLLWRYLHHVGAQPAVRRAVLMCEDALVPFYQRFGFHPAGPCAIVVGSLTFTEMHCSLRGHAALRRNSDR
Chain of GST-AANAT fusion (Q29495 whole entry, the tested form may be a part): as the sequence (Q29495 whole entry) above

For `CC(N)Cc1c[nH]c2ccccc12` (racemic) [a-methyltryptamine], the AANAT substrate (AANAT [1]) was “substrates” and the “kcat and Km compared to tryptamine” value (AANAT [1]) was “significantly reduced kcat and Km compared to tryptamine”.
With `NC(Cc1c[nH]c2ccccc12)C(F)(F)F` (racemic) [a-trifluoromethyltryptamine] the AANAT substrate (AANAT [2]) was “not detectably an AANAT substrate”, the Ki (AANAT [2]; competitive inhibitor) was 3000 ± 1000 µM and the AANAT substrate (AANAT [2]; listed as Ya-Trifluoromethyltryptamine) was “not to be a substrate”.
`CC(=O)SCCNC(=O)CCNC(=O)[C@H](O)C(C)(C)COP(=O)(O)OP(=O)(O)OC[C@H]1O[C@@H](n2cnc3c(N)ncnc32)[C@H](O)[C@@H]1OP(=O)(O)O` [Acetyl-CoA, acetyl-CoA] was tested, and the Kd (GST-AANAT [3]; ordered sequential mechanism, read-out: Kin (dissociation constant of the first binding substrate)) was 509 ± 156 µM and the Kd (GST-AANAT [3]; read-out: dissociation constant (Kd)) was 510 µM.
In the case of `CCNC(=O)CCNC(=O)[C@H](O)C(C)(C)COP(=O)(O)OP(=O)(O)OC[C@H]1O[C@@H](n2cnc3c(N)ncnc32)[C@H](O)[C@@H]1OP(=O)(O)O` [Desulfo-CoA, desulfo-CoA], the Ki (GST-AANAT [4]; quoted in discussion, read-out: K1) is reported as 1000 µM, the “Kis relative to dissociation constant of acetyl-CoA” value (GST-AANAT [4]; saturating tryptamine) is reported as 2 fold and the Inhibitor pattern (GST-AANAT [4]; varied substrate acetyl-CoA, tryptamine 1 mM) is reported as “linear competitive inhibitor”. The Inhibitor pattern (GST-AANAT [4]; varied substrate acetyl-CoA, tryptamine 1 mM, listed as desulfo-CoA) was “linear competitive”, the Ki (GST-AANAT [4]; varied substrate acetyl-CoA, tryptamine 1 mM, read-out: Kis) was 1020 µM and 1000 µM and the Inhibitor pattern (GST-AANAT [4]; varied substrate tryptamine, acetyl-CoA 0.2 mM) was “noncompetitive inhibitor”. The Inhibitor pattern (GST-AANAT [4]; varied substrate tryptamine, acetyl-CoA 0.2 mM, listed as desulfo-CoA) was “linear noncompetitive”, the Ki (GST-AANAT [4]; varied substrate tryptamine, acetyl-CoA 0.2 mM, read-out: Kis) was 1340 ± 450 µM and the Ki (GST-AANAT [4]; varied substrate tryptamine, acetyl-CoA 0.2 mM, read-out: Ksi) was 1490 ± 230 µM.
`CC(=O)NCCc1c[nH]c2ccccc12` [N-Acetyltryptamine, N-acetyltryptamine] was tested, and the Inhibitor pattern (GST-AANAT [4]; [7]) was “uncompetitive”, the Inhibitor pattern (GST-AANAT [4]; varied substrate acetyl-CoA, tryptamine 0.2 mM (subsaturating), listed as N-acetyltryptamine) was “uncompetitive inhibitor” and the Ki (GST-AANAT [4]; [8]) was 331 ± 23 µM. For the same compound, the Inhibitor pattern (GST-AANAT [4]; [9]) was “noncompetitive”, the Inhibitor pattern (GST-AANAT [4]; varied substrate tryptamine, acetyl-CoA 1 mM, listed as N-acetyltryptamine) was “noncompetitive inhibitor; also recorded: linear noncompetitive” and the Ki (GST-AANAT [4]; [10]) was 205 ± 29 µM. The Ki (GST-AANAT [4]; varied substrate tryptamine, acetyl-CoA 1 mM, read-out: Ksi) was 916 ± 160 µM.
With `CNCCc1c[nH]c2ccccc12` [Nw-methyltryptamine] the AANAT substrate (AANAT [1]) was “substrates”, the “kcat and Km compared to tryptamine” value (AANAT [1]) was “significantly reduced kcat and Km compared to tryptamine; also recorded: substantially reduced kcat compared to tryptamine” and the “slope of kcat-control/kcat-viscogen vs. relative viscosity” value (AANAT [5]; sucrose) was “+0.16±0.03”. The “slope of kcat/Km control/viscogen vs. relative viscosity” value (AANAT [5]; sucrose, kcat/Km effect) was -0.14±0.03 and the rate-determining step (AANAT [5]) was “the chemical step is rate-determining”.
For `NCCc1c[nH]c2ccc(O)cc12` [Serotonin, 5-hydroxytryptamine], the “kcat(app)” value (GST-AANAT fusion; 1 mM (near saturating) concentration of the fixed substrate) was 34 ± 2 s⁻¹, the “kcat(app) and Km(app) compared with tryptamine” value (GST-AANAT fusion; serotonin vs tryptamine) was “nearly indistinguishable from those obtained with tryptamine” and the kcat (AANAT [1]; Table 1, tryptamine analogs) was 34 ± 1 s⁻¹.
In the case of `NCCc1c[nH]c2ccccc12` [Tryptamine, tryptamine], the “slope of kcat-control/kcat-viscogen vs. relative viscosity” value (AANAT [5]; sucrose) is reported as “+0.75±0.08” and the rate-determining step (AANAT [5]) is reported as “product release (or a conformational change associated with product release) is largely rate-determining”.
For `OCCc1c[nH]c2ccccc12` [Tryptophol, tryptophol], the Inhibitor pattern (GST-AANAT [4]; [7]) was “uncompetitive”, the Inhibitor pattern (GST-AANAT [4]; varied substrate acetyl-CoA, tryptamine 0.2 mM (subsaturating), listed as trypochol) was “linear uncompetitive” and the Inhibitor pattern (GST-AANAT [4]; varied substrate acetyl-CoA, tryptamine 0.2 mM (subsaturating), listed as tryptophol) was “uncompetitive inhibitor”. The Ki (GST-AANAT [4]; [8]) was 1360 ± 120 µM, the Inhibitor pattern (GST-AANAT [4]; [9]) was “competitive” and the Inhibitor pattern (GST-AANAT [4]; varied substrate tryptamine, acetyl-CoA 1 mM, listed as tryptophol) was “linear competitive inhibitor”. For the same compound, the Ki (GST-AANAT [4]; [10]) was 680 ± 78 µM, the “Kis relative to Kii in a noncompetitive fit” value (GST-AANAT [4]; versus acetyl-CoA) was “more than 10 times” and the “acetyl transfer (alternative substrate)” value (GST-AANAT [6]) was “prevents enzyme-catalyzed acetyl transfer; also recorded: not an alternative substrate”. The “acetylation efficiency relative to tryptamine, fold less” value (GST-AANAT [6]) was “at least 400 fold” and the “acetyl transfer (alternative substrate)” value (GST-AANAT [6]; listed as tryptophol) was “no detectable transfer took place; also recorded: not a substrate”.
